Test results reported in paper PMC5190008, “BO-1055, a novel DNA cross-linking agent with remarkable low myelotoxicity shows potent activity in sarcoma models” (Oncotarget, 2016).

Tests used:
CCRF-CEM/Taxol cells = tested on: CCRF-CEM/Taxol cells; set-up: method as in PMID 21106377; conditions: CCRF-CEM/Taxol ref 6; cited from earlier work
A673 spheroids = assay: Spheroid assay in 3D culture (methylcellulose); format: cell-based, human; conditions: A673 spheroids in methylcellulose, scored 14 days after plating
Description: A673 cells were seeded on flat bottom non attachment 24 well plates (1000 cells/well) in triplicate using 1.2 % methylcellulose (Dow Chemical, Waterloo, NY) mixed with 20% FCS and specified concentrations of BO-1055 or 4HC as shown in Figure 1D. Samples were incubated at 37°C / 5 % CO2 and colonies were scored 14 days after plating.

[1] = tested on: patient derived Ewing sarcoma xenografts; assay: Cyclophosphamide resistant patient-derived Ewing sarcoma xenografts; format: in vivo, NSG mice; conditions: cyclophosphamide MTD 70mg/kg i.p. q2d for 3 doses
Description: Patient derived xenografts were established from Ewing sarcoma patients who progressed through first line chemotherapy that included cyclophosphamide, doxorubicin, vincristine, ifosfamide and etoposide (PS3). When these Ewing sarcoma xenografts (n = 10) reached 100mm^3, they were randomized to control and treatment groups.
All mouse experiments were performed at the animal core facility at MSKCC under an approved protocol following the IACUC guidelines. Five to seven-week-old NOD/SCID IL2R gamma null (NSG) mice (bred at the Mouse Genetics Core Facility, MSKCC) were used for in vivo experiments. All mouse experiments were done following the IACUC guidelines at the animal facility at MSKCC. Tumors were induced using 10^6 A673 cells or A204 cells in 0.2ml 1:1 cellular medium, Matrigel matrix (BD Bioscience, Bedford, MA) and injected subcutaneously (s.q) into the right flank. The tumors were measured every 3 d with a caliper, and the diameters were recorded. Tumor volume was calculated by the formula a^2 b/2 where ‘a’ is the smallest and ‘b’ is the largest diameter. When the tumors reached 100mm^3, we randomized mice into control and drug treatment groups. Treatment groups received BO-1055 by tail vein injection at 10mg/kg, 20mg/kg and 30mg/kg q2d x 5 doses for mice bearing A673 xenografts. BO-1055 was given at 30mg/kg q2d x 5 doses for mice bearing A204 xenografts. […]

SMILES: CC(=O)O[C@H]1C(=O)[C@@]2(C)[C@H]([C@H](OC(=O)c3ccccc3)[C@]3(O)C[C@H](OC(=O)[C@H](O)[C@@H](NC(=O)c4ccccc4)c4ccccc4)C(C)=C1C3(C)C)[C@]1(OC(C)=O)CO[C@@H]1C[C@@H]2O [taxol, reference compound]
- resistance of CCRF-CEM/Taxol cells (CCRF-CEM/Taxol cells): 330 fold

SMILES: O=P1(N(CCCl)CCCl)NC(OO)CCO1 (stereo not drawn) [4-HC, 4-hydroperoxy cyclophosphamide, reference compound]
- concentration giving complete inhibition of spheroids (A673 spheroids): 5 µM

SMILES: O=P1(N(CCCl)CCCl)NCCCO1 (stereo not drawn) [cyclophosphamide, reference compound]
- tumor growth [1]: not inhibited
